Measured values taken from ChEMBL document CHEMBL1148931, “New sesterterpenes from the sponge Smenospongia sp” (2004).
Converted amounts (≈) assume the structure as drawn.

Tested on: K562
Assay: Cytotoxicity against human K562 cells
Assay type: functional
Settings: read-out: LC50 (the source's name)

Compared with `CC(=O)O[C@@H](C/C=C(\C)CC/C=C(\C)CC/C=C(\C)CC(=O)CC(C)C)c1ccoc1`, `C/C(=C\CC/C(C)=C/C[C@H](O)c1ccoc1)CC/C=C(\C)CC(=O)CC(C)C` is 11-fold lower in CC50: 31.6 µg/mL (≈ 73.7 µM) for the first, 3 µg/mL (≈ 7.76 µM) for the second.

First: CC(=O)OC[C@]12CCCC(C)(C)[C@@H]1CC[C@@]1(C)[C@@H]3CC=C4C(=O)O[C@@H](OC(C)=O)[C@@H]4[C@@]3(C)CC[C@@H]12
Second: CC(=O)OC[C@]12CCCC(C)(C)[C@@H]1CC[C@@]1(C)[C@@H]3CC=C4C(=O)O[C@@H](O)[C@@H]4[C@@]3(C)CC[C@@H]12
The CC50 of the first is 2.3-fold higher: 11.2 µg/mL (≈ 23 µM) for the first, 4.9 µg/mL (≈ 11 µM) for the second.

With `CC(=O)O[C@@H]1OC=C2[C@@H](OC(C)=O)C[C@@H]3[C@](C)(CC[C@H]4[C@@]3(C)CC[C@H]3C(C)(C)CCC[C@@]34CO)[C@H]21` the CC50 was 0.02 µg/mL (≈ 0.0409 µM).
